Values of other authors in patent US20240245680A1, “Methods of Treating Retinal Vasculopathies” (Unity Biotechnology, Inc., priority 2021, published 2024).

Legend:
GLS2 = biological target: T1, GLS2 (Homo sapiens, UniProt Q9UI32); details: cited from earlier work
T1 sequence (Q9UI32 15-602): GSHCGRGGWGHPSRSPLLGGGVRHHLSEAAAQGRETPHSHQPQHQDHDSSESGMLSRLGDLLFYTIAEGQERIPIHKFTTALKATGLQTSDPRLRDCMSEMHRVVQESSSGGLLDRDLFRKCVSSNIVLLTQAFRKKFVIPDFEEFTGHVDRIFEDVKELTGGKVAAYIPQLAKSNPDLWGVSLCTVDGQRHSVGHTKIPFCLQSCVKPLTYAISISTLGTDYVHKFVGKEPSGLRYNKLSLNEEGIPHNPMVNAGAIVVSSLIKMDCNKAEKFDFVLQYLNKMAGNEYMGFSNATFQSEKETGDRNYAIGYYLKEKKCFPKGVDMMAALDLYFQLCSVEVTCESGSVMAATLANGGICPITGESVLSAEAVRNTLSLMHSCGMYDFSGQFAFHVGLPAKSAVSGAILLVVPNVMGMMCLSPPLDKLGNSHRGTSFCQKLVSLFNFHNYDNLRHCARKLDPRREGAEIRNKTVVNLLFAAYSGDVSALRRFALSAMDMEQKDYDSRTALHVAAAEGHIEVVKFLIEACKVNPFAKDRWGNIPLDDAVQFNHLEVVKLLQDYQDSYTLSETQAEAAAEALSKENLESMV

glutaminase C (GAC) = biological target: T2, glutaminase C (GAC) (Homo sapiens, UniProt O94925); details: cited from earlier work
T2 sequence (O94925 55-598 isoform O94925-3 limits assumed): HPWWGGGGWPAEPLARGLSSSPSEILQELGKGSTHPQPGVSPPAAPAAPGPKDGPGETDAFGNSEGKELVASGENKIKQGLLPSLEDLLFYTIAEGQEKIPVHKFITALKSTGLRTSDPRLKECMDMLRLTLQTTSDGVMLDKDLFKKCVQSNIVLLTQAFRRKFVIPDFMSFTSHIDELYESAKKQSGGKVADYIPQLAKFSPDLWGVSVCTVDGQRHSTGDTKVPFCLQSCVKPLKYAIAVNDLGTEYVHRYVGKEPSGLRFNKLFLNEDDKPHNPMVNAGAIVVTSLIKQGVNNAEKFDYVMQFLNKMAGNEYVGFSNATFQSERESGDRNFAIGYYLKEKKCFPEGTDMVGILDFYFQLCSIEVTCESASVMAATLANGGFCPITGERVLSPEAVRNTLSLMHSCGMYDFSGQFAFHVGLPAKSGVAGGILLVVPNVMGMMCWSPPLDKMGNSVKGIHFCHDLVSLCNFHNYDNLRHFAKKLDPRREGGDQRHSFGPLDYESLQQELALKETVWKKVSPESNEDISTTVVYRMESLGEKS

O=C(Cc1ccccc1)Nc1nnc(NC2CCN(c3nnc(NC(=O)Cc4ccccc4)s3)CC2)s1 [UPGL00004]
selectivity for GAC over GLS2 (GLS2): high selectivity
IC50 (glutaminase C (GAC)): 29 nM
